Test: Homogeneity of GOA: citric acid by HPLC in eight aliquots
Assay type: physicochemical
Method: Citric acid is determined quantitatively by dissolving a known quantity of glucosamine citrate in deionized water. The solution is filtered through a 0.22μ filter into a HPLC vial. The sample is analyzed by HPLC using a BioRad HPX-87H column (BioRad, City, State) and 0.01 N H2SO4 as the mobile phase.
A sample containing a blend comprising 20% by weight anhydrous citric acid and 80% glucosamine hydrochloride was blended by tumbling for five minutes. The blended sample was poured into a tray. Eight aliquots were collected from different areas of the tray. The aliquots were diluted in 0.01N H2SO4, and then analyzed for citric acid by the method described in Example 6. The peak areas were normalized by the aliquot weights, and then averaged. The relative standard deviation for the eight aliquots was 7.7%.
A sample of GOA from Example 2, which had been stored at room temperature in a flask for approximately eleven months, having 12.3% citric acid was analyzed similarly. Eight aliquots were taken from the sample. Citric acid was determined by HPLC as described above. The peak areas were normalized by the aliquot weights, and then averaged. The relative standard deviation for the eight aliquots was 1.9%.
The analytical precision measured from eight aliquots of pure citric acid was 1.8% relative.

Compound	degree of homogeneity (precision compared with pure citric acid)	analytical precision measured from eight aliquots (pure citric acid, HPLC) [% relative]
N[C@H]1C(O)O[C@H](CO)[C@@H](O)[C@@H]1O.O=C(O)CC(O)(CC(=O)O)C(=O)O [GOA from Example 2, glucosamine citrate]	high degree of homogeneity	
O=C(O)CC(O)(CC(=O)O)C(=O)O [citric acid]		1.8
